Test results: the NIST ThermoML archive (doi:10.1016/j.tca.2015.06.017)

Experiment: xn = mol fraction of the nth substance listed
Settings: 283.15 K, Liquid, Vibrating tube method

CCCCCl [1-chlorobutane] + CCCCCCC
mass density [kg/m3]
Settings | 100 kPa | 2000 kPa | 5000 kPa | 7000 kPa | 10000 kPa | 20000 kPa | 30000 kPa | 40000 kPa | 50000 kPa
x2 = 0.0508 | 882.75 | 884.62 | 887.46 | 889.28 | 891.99 | 900.53 | 908.4 | 915.72 | 922.47
x2 = 0.0994 | 869.33 | 871.23 | 874.03 | 875.85 | 878.55 | 887.08 | 894.89 | 902.19 | 908.9
x2 = 0.2013 | 842.84 | 844.73 | 847.53 | 849.37 | 852.02 | 860.48 | 868.22 | 875.41 | –
x2 = 0.3015 | 818.82 | 820.72 | 823.49 | 825.31 | 827.93 | 836.34 | 843.95 | 851.07 | –
x2 = 0.4008 | 796.7 | 798.63 | 801.35 | 803.16 | 805.75 | 814.1 | 821.67 | 828.73 | –
x2 = 0.5026 | 775.72 | 777.65 | 780.38 | 782.19 | 784.72 | 793.03 | 800.5 | 807.4 | –
x2 = 0.6012 | 756.89 | 758.81 | 761.44 | 763.28 | 765.77 | 773.97 | 781.4 | 788.26 | –
x2 = 0.7003 | 739.21 | 741.14 | 743.76 | 745.54 | 748.04 | 756.2 | 763.51 | 770.26 | –
x2 = 0.7995 | 722.69 | 724.62 | 727.26 | 729.04 | 731.51 | 739.54 | 746.78 | 753.48 | –
x2 = 0.9011 | 706.94 | 708.86 | 711.45 | 713.2 | 715.65 | 723.61 | 730.75 | 737.36 | –
x2 = 0.9494 | 699.8 | 701.72 | 704.3 | 706.05 | 708.47 | 716.4 | 723.48 | 730.05 | –
